Measurements published in US20110124657A1, “METHOD FOR SCREENING OF 5HT7 RECEPTOR LIGANDS BASED ON A NEW PHARMACOPHORE MODEL AND A DESCRIPTOR'S PROFILE FILTER” (LABORATORIOS DEL DR. ESTEVE, S.A., priority 2008, published 2011).
Like-named read-outs stand apart in the source and are kept apart here.

Target: T1, Cloned Human Serotonin Receptor, Subtype 7 (h5HT7), expressed in CHO cells (Homo sapiens, UniProt P34969)
T1 construct: purchased PerkinElmer 6120512; host or cells: CHO cells (membranes coated on FlashPlate)
Assay: Radioligand binding, [125I]LSD, Flashplate
Conditions: for inhibition at 1 µM: read-out: %-Inhib. (10^−6 M)
Method: Radioligand binding assays were performed using the Cloned Human Serotonin Receptor, Subtype 7 (h5HT7), expressed in CHO cells, coated on Flashplate (Basic FlashPlate Cat.: SMP200) from PerkinElmer (Cat.: 6120512). The protocol assay was essentially the recommended protocol in the Technical Data Sheet by PerkinEmer Life and Analytical Sciences. The Mass membrane protein/well was typically 12 μg and the Receptor/well was about 9-10 fmoles. The Flashplate were let equilibrate at room temperature for one hour before the addition of the components of the assay mixture. The binding buffer was: 50 mM Tris-HCl, pH 7.4, containing 10 mM MgCl2, 0.5 mM EDTA and 0.5% BSA. The radioligand was [^125I]LSD at a final concentration of 0.82 nM. Nonspecific binding was determined with 50 μM of Clozapine. The assay volume was 25 μl. TopSeal-A were applied onto Flashplate microplates and they were incubated at room temperature for 240 minutes in darkness. The radioactivity were quantified by liquid scintillation spectrophotometry (Wallac 1450 Microbeta Trilux) with a count delay of 4 minutes prior to counting and a counting time of 30 seconds per well. Competition binding data were analyzed by using the LIGAND program (Munson and Rodbard, LIGAND: A versatile, computerized approach for characterization of ligand-binding systems. Anal. Biochem. 107: 220-239, 1980) and assays were performed in triplicate determinations for each point.

[1] = compound at 10^−6 M, radioligand [125I]LSD 0.82 nM
[2] = radioligand [125I]LSD 0.82 nM, triplicate determinations, read-out: IC50

T1 sequence (P34969 whole entry): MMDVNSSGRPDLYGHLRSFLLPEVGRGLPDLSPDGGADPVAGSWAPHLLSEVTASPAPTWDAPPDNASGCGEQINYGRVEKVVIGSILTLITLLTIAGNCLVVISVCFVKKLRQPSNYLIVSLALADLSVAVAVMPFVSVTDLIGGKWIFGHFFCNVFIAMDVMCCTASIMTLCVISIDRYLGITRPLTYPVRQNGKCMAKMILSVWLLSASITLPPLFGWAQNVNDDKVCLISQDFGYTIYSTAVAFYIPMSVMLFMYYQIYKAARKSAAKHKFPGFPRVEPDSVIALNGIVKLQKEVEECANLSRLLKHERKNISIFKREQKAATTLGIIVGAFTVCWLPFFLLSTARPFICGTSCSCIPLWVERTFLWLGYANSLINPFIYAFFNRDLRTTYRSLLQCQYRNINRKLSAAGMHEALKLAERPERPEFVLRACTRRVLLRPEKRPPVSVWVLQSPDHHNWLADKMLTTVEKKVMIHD

| inhibition at 1 µM [1] | IC50 [2] | SMILES | inhibition at 1 µM | IC50 |
| --- | --- | --- | --- | --- |
| 85.3% | 314 nM | O=c1[nH]c2ccccc2n1C1=CCN(CCOc2ccccc2)CC1 [1-(1-(2-phenoxyethyl)-1,2,3,6-tetrahydropyridin-4-yl)-1H-benzo[d]imidazol-2(3H)-one] | – | – |
| 76.1% | 236 nM | O=c1[nH]c2ccccc2n1C1CCN(CCOc2ccccc2)CC1 [1-(1-(2-phenoxyethyl)piperidin-4-yl)-1H-benzo[d]imidazol-2(3H)-one] | – | – |
| 82.5% | – | CC(C)Oc1ccccc1N1CCN(Cc2ccc(Cl)nc2)CC1 [1-((6-chloropyridin-3-yl)methyl)-4-(2-isopropoxyphenyl)piperazine] | – | – |
| 78.5% | 139 nM | COc1ccccc1N1CCN(CCC(O)c2ccccc2)CC1 (stereo not drawn) [3-(4-(2-methoxyphenyl)piperazin-1-yl)-1-phenylpropan-1-ol] | – | – |
| – | – | CCOc1ccccc1N1CCN(Cc2c[nH]c3ccccc23)CC1 [3-((4-(2-ethoxyphenyl)piperazin-1-yl)methyl)-1H-indole] | 70% | 440 nM |
| – | – | COc1ccc(C(C)C)cc1CN1CCN(c2cccc3[nH]ccc23)CC1 [4-(4-(5-isopropyl-2-methoxybenzyl)piperazin-1-yl)-1H-indole] | 76.6% | 28.7 nM |
| 65.7% | 1390 nM | COc1ccccc1N1CCN(CCC(=O)Nc2ccc3c(c2)CCC3)CC1 [N-(2,3-dihydro-1H-inden-5-yl)-3-(4-(2-methoxyphenyl)piperazin-1-yl)propanamide] | – | – |
| – | – | O=C(c1cccs1)C1CN2CCC1CC2 (stereo not drawn) [quinuclidin-3-yl(thiophen-2-yl)methanone] | 52.1% | 983 nM |

| SMILES | inhibition at 1 µM [1] | IC50 [2] | inhibition at 1 µM | IC50 |
| --- | --- | --- | --- | --- |
| O=c1[nH]c2ccccc2n1C1=CCN(CCCOc2ccccc2)CC1 [1-(1-(3-phenoxypropyl)-1,2,3,6-tetrahydropyridin-4-yl)-1H-benzo[d]imidazol-2(3H)-one] | – | 1260 nM | 67.6% | – |
| CC(C)Oc1ccccc1N1CCN(Cc2ccc(-n3ccnc3)cc2)CC1 [1-(4-(1H-imidazol-1-yl)benzyl)-4-(2-isopropoxyphenyl)piperazine] | – | 278 nM | 74.3% | – |
| CN(C)S(=O)(=O)c1ccc2[nH]cc(CCN)c2c1 [3-(2-aminoethyl)-N,N-dimethyl-1H-indole-5-sulfonamide] | – | 173 nM | 84.3% | – |
